The record followed here is patent US12227501B2, “3-amino-2-[2-(acylamino)pyridin-4-yl]-1,5,6,7-tetrahydro-4h-pyrrolo[3,2-c]pyridin-4-one as CSNK1 inhibitors” (Bayer Aktiengesellschaft, priority 2019, dated 2025).

Common to all, as to assay type: biochemical
Experiment [1] deals with wild-type Epidermal Growth Factor Receptor (EGFR) (Homo sapiens (Human), UniProt P00533). The experiment is described as follows: WT-EGFR Kinase Assay (TR-FRET, 2 mM ATP).
The next experiment addresses human CSNK1D (Homo sapiens (Human), UniProt P48730). The experiment is described as follows: CSNK1D Assay (ADP-Glo, 1 μM ATP). As to conditions: read-out: CSNK1D IC50 [mol/l] (median). An outline of the steps: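 GST-tagged full-length human CSNK1D from baculovirus-infected insect cells, typically ~0.5 ng/μL, with biotinylated peptide substrate and 1 μM ATP in HEPES pH 7.5 buffer. Compound is preincubated with enzyme 15 min at 22 °C. ADP formed is quantified by ADP-Glo luminescence.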

Experiment [2] concerns the target T1, human CSNK1A1 (Homo sapiens (Human), UniProt P48729). The experiment is described as follows: CSNK1A1 Assay 2 (ADP-Glo, 1 μM ATP). As to conditions: substrate biotin-Ahx-KRRRAL-pS-VASLPGL, read-out: CSNK1A1 Assay 2 IC50 [mol/l] (median). An outline of the steps: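 Full-length human CSNK1A1 as an N-terminal GST fusion (baculovirus/insect cells) with biotinylated peptide substrate biotin-Ahx-KRRRAL-pS-VASLPGL and 1 μM ATP, in HEPES pH 7.5 buffer. Compounds were pre-incubated with enzyme (~0.0375 ng/μL) for 15 min at 22 °C. Generated ADP was read by ADP-Glo luminescence as the activity measure.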
A general note: In ADP-Glo the light output rises with the ADP produced.

The target in experiment [3] is T1, human CSNK1A1. Nature of the experiment: CSNK1A1 High ATP Assay (ADP-Glo, 1 mM ATP). As to conditions: read-out: CSNK1A1 high ATP assay IC50 [mol/l] (median). An outline of the steps:
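GST-tagged full-length human CSNK1A1 from baculovirus-infected insect cells (typically about 0.4 ng/μL), pre-incubated with compound 15 min at 22 °C. Reaction with biotinylated peptide biotin-Ahx-KRRRAL-pS-VASLPGL at 1 mM ATP. ADP formed read by ADP-Glo luminescence.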

The mark [4] stands for this setting: EGFR Wildtyp- 2 mM ATP IC50 [mol/l] (median).
Where [5] appears, read: read-out: EGFR Wildtyp- 2 mM ATP IC50 [mol/l] (median).

Read-outs that look alike come from different tables or passages of the source.

human CSNK1D, sequence (P48730 whole entry): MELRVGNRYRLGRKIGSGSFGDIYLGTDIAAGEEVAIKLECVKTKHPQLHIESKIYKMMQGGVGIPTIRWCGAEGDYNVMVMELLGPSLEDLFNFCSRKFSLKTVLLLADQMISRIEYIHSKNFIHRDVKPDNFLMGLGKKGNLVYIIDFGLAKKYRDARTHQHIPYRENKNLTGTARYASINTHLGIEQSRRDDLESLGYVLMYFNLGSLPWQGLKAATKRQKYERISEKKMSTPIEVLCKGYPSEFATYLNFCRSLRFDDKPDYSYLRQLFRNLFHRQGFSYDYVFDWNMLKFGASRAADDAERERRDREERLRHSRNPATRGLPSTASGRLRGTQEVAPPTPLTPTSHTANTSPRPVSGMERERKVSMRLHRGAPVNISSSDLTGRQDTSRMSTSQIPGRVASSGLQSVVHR
T1 sequence (P48729 whole entry, the tested form may be a part): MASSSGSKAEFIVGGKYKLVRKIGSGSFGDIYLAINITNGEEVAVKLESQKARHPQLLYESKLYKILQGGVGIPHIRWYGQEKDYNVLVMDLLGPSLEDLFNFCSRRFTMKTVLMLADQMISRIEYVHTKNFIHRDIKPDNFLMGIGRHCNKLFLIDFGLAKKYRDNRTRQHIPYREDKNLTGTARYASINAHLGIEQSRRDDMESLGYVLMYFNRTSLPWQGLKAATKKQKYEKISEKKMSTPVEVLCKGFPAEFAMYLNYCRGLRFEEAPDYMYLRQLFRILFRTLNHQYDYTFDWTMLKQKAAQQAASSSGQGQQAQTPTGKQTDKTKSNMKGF
wild-type Epidermal Growth Factor Receptor (EGFR), sequence (P00533 669-1210): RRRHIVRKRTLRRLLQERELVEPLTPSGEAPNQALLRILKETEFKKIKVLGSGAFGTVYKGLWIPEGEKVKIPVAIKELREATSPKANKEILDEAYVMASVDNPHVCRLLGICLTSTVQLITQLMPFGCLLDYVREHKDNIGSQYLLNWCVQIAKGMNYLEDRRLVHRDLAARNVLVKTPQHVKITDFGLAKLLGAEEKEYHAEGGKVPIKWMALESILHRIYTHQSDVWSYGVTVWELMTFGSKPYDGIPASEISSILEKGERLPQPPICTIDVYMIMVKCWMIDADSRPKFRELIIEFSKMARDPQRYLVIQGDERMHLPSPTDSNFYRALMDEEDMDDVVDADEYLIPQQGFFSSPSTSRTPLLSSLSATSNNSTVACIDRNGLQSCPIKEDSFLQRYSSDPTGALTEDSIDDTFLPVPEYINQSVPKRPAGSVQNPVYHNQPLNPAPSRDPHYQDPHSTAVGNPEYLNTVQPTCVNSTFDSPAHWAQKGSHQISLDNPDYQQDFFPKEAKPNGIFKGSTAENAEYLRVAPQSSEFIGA

As for `CC1Cc2[nH]c(-c3ccnc(NC(=O)Cc4ccc(F)cc4)c3)c(Nc3ccccc3F)c2C(=O)N1C` (single isomer, unassigned; (+)) [Example 101, (+)-N-{4-[3-(2-fluoroanilino)-5,6-dimethyl-4-oxo-4,5,6,7-tetrahydro-1H-pyrrolo[3,2-c]pyridin-2-yl]pyridin-2-yl}-2-(4-fluorophenyl)acetamide], the IC50 was > 20 µM in experiment [1] (setting [4]), 0.00742 µM on human CSNK1D, 0.00374 µM at human CSNK1A1 [2] and 0.258 µM at human CSNK1A1 [3].

`CC1Cc2[nH]c(-c3ccnc(NC(=O)C(CC(F)F)c4ccc(F)cc4)c3)c(Nc3ccccc3F)c2C(=O)N1C` (single isomer, unassigned; (+)) [Example 103, (+)-(2RS)-4,4-difluoro-N-{4-[(6R*)-3-(2-fluoroanilino)-5,6-dimethyl-4-oxo-4,5,6,7-tetrahydro-1H-pyrrolo[3,2-c]pyridin-2-yl]pyridin-2-yl}-2-(4-fluorophenyl)butanamide]: the IC50 in experiment [1] (setting [4]) was > 20 µM; on human CSNK1D it was 0.0173 µM; at human CSNK1A1 [2], 0.0128 µM; at human CSNK1A1 [3] it was 0.268 µM.

As to `CC1Cc2[nH]c(-c3ccnc(NC(=O)C(CC(F)F)c4ccc(F)cc4)c3)c(Nc3ccccc3F)c2C(=O)N1C` (single isomer, unassigned; (+)) [Example 105, (+)-4,4-difluoro-N-{4-[3-(2-fluoroanilino)-5,6-dimethyl-4-oxo-4,5,6,7-tetrahydro-1H-pyrrolo[3,2-c]pyridin-2-yl]pyridin-2-yl}-2-(4-fluorophenyl)butanamide], the IC50 is > 20 µM in experiment [1] (setting [5]), 0.00545 µM on human CSNK1D, 0.00406 µM at human CSNK1A1 [2] and 0.0945 µM at human CSNK1A1 [3].

For `CC1Cc2[nH]c(-c3ccnc(NC(=O)C(CC(F)F)c4ccc(F)cc4)c3)c(Nc3ccccc3F)c2C(=O)N1C` (single isomer, unassigned; (+)) [Example 108, (+)-4,4-difluoro-N-{4-[3-(2-fluoroanilino)-5,6-dimethyl-4-oxo-4,5,6,7-tetrahydro-1H-pyrrolo[3,2-c]pyridin-2-yl]pyridin-2-yl}-2-(4-fluorophenyl)butanamide], the IC50 is > 20 µM in experiment [1] (setting [5]), 0.00462 µM on human CSNK1D, 0.00327 µM at human CSNK1A1 [2] and 0.00833 µM on human CSNK1A1 [3].

With `CC1(C)Cc2[nH]c(-c3ccnc(NC(=O)C(CC(F)F)c4ccc(F)cc4)c3)c(Nc3cccc(F)c3Cl)c2C(=O)N1` (single isomer, unassigned; (+)) [Example 111, (+)-N-{4-[3-(2-chloro-3-fluoroanilino)-6,6-dimethyl-4-oxo-4,5,6,7-tetrahydro-1H-pyrrolo[3,2-c]pyridin-2-yl]pyridin-2-yl}-4,4-difluoro-2-(4-fluorophenyl)butanamide], the IC50 was found to be 1.14 µM in experiment [1] (setting [4]), 0.0102 µM at human CSNK1D, 0.0109 µM at human CSNK1A1 [2] and 0.135 µM on human CSNK1A1 [3].

Turning to `CC(C(=O)Nc1cc(-c2[nH]c3c(c2Nc2ccccc2F)C(=O)N(C)CC3)ccn1)c1ccc(F)cc1` (single isomer, unassigned; (-)) [Example 41, (−)-N-{4-[3-(2-fluoroanilino)-5-methyl-4-oxo-4,5,6,7-tetrahydro-1H-pyrrolo[3,2-c]pyridin-2-yl]pyridin-2-yl}-2-(4-fluorophenyl)propanamide], the IC50 in experiment [1] (setting [4]) is > 20 µM; at human CSNK1D, 0.0312 µM; on human CSNK1A1 [2], 0.0226 µM; on human CSNK1A1 [3], 3.53 µM.

`O=C1NC2(CCC2)Cc2[nH]c(-c3ccnc(NC(=O)C(CC(F)F)c4ccc(F)cc4)c3)c(Nc3ccccc3)c21` (single isomer, unassigned; (-)) [Example 56, (−)-N-[4-(3′-anilino-4′-oxo-1′,4′,5′,7′-tetrahydrospiro[cyclobutane-1,6′-pyrrolo[3,2-c]pyridin]-2′-yl)pyridin-2-yl]-4,4-difluoro-2-(4-fluorophenyl)butanamide]: the IC50 in experiment [1] (setting [4]) is 0.857 µM; at human CSNK1D it was 0.0279 µM; at human CSNK1A1 [2], 0.0192 µM; at human CSNK1A1 [3], 1.08 µM.
